Consider 14 compounds from patent EP4725941A1, “ARYLAMIDE DERIVATIVE HAVING ANTITUMOR ACTIVITY” (priority 2020, dated 2021).

One data set concerns the target T1, MEK1 (Homo sapiens, UniProt Q02750).
T1 construct: purchased Thermo Fisher Scientific Inc. (MEK1, CRAF); Carna Biosciences, Inc. (ERK2)
Description: MEK1-inhibiting activity, fluorescent polarization method (CRAF/MEK1/ERK2 cascade, IMAP). The format is biochemical. To be noted: Table 3; read-out: MEK1 IC50. Here is the method:
The MEK1-inhibiting activity of the compounds listed in Table 3 below were evaluated by the fluorescent polarization method as described below.

The subject of a further data set is Calu-6. The experiment in a line: Cell proliferation-inhibiting activity (ATP in viable cells, CellTiter-Glo), Calu-6. The format is cell-based, human. The settings on record: Calu-6, 96 h; human lung cancer cells, 4 days; read-out: Calu-6 IC50. On the technique in general: ATP-based viability assays read luminescence as a measure of living cells.
The target of the next data set is T2, BRAF (Homo sapiens, UniProt P15056).
T2 construct: purchased Eurofins Genomics KK; (BRAF); Thermo Fisher Scientific Inc. (MEK1)
The experiment in a line: BRAF-inhibiting activity, time-resolved fluorescence-fluorescence resonance energy transfer assay. The format is biochemical. To be noted: read-out: BRAF IC50; Table 3. Here is the method:
The BRAF-inhibiting activity of the compounds listed in Table 3 below was evaluated by the time-resolved fluorescence-fluorescence resonance energy transfer assay as described below.

The nature of data set [1]: Human liver microsome stability. The format is in vitro ADME. The settings on record: human liver microsomes, pH 7.4. On the technique in general: Liver microsomes are vesicles of endoplasmic reticulum, rich in cytochrome P450 enzymes.
Another data set relates to A549. Description: Cell proliferation-inhibiting activity (ATP in viable cells, CellTiter-Glo), A549. To be noted: A549, 96 h; human lung cancer cells, 4 days; read-out: A549 IC50. The format is cell-based, human.
Another data set deals with NCI-H2122. Description: Cell proliferation-inhibiting activity (ATP in viable cells, CellTiter-Glo), NCI-H2122. The format is cell-based, human. The settings on record: NCI-H2122, 96 h; human lung cancer cells, 4 days; read-out: NCI-H2122 IC50.

Each structure is given as a SMILES string. Bounds are passed on as bounds.

T1 sequence (Q02750 whole entry): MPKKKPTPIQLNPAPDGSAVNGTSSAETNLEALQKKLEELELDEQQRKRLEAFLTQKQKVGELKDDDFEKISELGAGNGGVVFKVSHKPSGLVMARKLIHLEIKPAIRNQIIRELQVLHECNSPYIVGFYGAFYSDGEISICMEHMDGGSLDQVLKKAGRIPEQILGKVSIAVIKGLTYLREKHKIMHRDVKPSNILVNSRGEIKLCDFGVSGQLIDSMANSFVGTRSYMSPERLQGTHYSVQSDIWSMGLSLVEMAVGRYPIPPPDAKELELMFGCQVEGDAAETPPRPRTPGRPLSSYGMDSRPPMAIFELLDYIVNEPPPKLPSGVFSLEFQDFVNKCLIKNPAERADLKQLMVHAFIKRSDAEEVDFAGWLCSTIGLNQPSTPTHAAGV
T2 sequence (P15056 417-766 limits assumed): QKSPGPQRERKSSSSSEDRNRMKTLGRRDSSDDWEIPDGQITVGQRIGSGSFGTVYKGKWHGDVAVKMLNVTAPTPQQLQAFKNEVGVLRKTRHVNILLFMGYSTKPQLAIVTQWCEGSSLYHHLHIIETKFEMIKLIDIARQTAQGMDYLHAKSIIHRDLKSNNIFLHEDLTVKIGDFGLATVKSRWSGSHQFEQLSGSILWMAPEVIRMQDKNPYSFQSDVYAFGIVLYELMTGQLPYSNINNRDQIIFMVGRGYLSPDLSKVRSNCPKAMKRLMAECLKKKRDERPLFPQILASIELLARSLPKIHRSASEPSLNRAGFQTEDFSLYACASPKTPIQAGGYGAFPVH

As usually defined, the IC50 is the midpoint of a concentration-inhibition curve. One may read the microsomal CLint as the rate of metabolic loss divided by the concentration. For the compound `CNS(=O)(=O)Nc1cccc(Cc2cc(C(=O)NC3CC3)c(Nc3ccc(I)cc3F)c(F)c2F)c1F` [Compound D-6, N-Cyclopropyl-3,4-difluoro-2-(2-fluoro-4-iodoanilino)-5-[[2-fluoro-3-(methylsulfamoylamino)phenyl]methyl]benzamide], the half-maximal inhibitory concentration (IC50) on MEK1 worked out at 55 nM; with Calu-6, 24 nM; on BRAF, 8 nM; in the data set with A549, 8 nM; in the data set with NCI-H2122, 2 nM. In addition, the microsomal CLint at 0.99 µM in data set [1] was found to be 34 µL/min/mg.
Regarding `NS(=O)(=O)Nc1cccc(Cc2cc(C(=O)NC3CC3)c(Nc3ccc(I)cc3F)c(F)c2F)c1F` [Compound D-7, N-Cyclopropyl-3,4-difluoro-2-(2-fluoro-4-iodoanilino)-5-[[2-fluoro-3-(sulfamoylamino)phenyl]methyl]benzamide], the half-inhibitory concentration (IC50) on MEK1 turned out to be 282 nM; in the data set with Calu-6 it was 9 nM; on BRAF, 4 nM; in the data set on A549 it was 3 nM; in the data set on NCI-H2122, 2 nM. Also, the microsomal CLint at 0.99 µM in data set [1] stood at 11 µL/min/mg.
Consider `CCS(=O)(=O)Nc1cccc(Cc2cc(C(=O)NOC)c(Nc3ccc(I)cc3F)c(F)c2F)c1F` [Compound E-1, 5-[[3-(ethylsulfonylamino)-2-fluorophenyl]methyl]-3,4-difluoro-2-(2-fluoro-4-iodoanilino)-N-methoxybenzamide], for which the concentration for half-maximal inhibition (IC50) on MEK1 is 40 nM; in the data set with Calu-6, 6 nM; on BRAF, 12 nM; in the data set with A549, 2 nM; with NCI-H2122, 0.4 nM. In data set [1], this compound gave an intrinsic clearance (microsomal CLint) at 0.99 µM of 17 µL/min/mg.
Consider `CCS(=O)(=O)Nc1cccc(Cc2cc(C(=O)NOC(C)(C)C)c(Nc3ccc(I)cc3F)c(F)c2F)c1F` [Compound E-2, 5-[[3-(Ethylsulfonylamino)-2-fluorophenyl]methyl]-3,4-difluoro-2-(2-fluoro-4-iodoanilino)-N-[(2-methylpropan-2-yl)oxy]benzamide], for which the IC50 at MEK1 is 86 nM; in the data set on Calu-6, 19 nM; at BRAF, 22 nM; with A549 it was 6 nM; with NCI-H2122, 2 nM. This compound had an intrinsic clearance (microsomal CLint) at 0.99 µM in data set [1] of 42 µL/min/mg.
As for `COCC1(S(=O)(=O)Nc2cccc(Cc3cc(C(=O)NOC(C)(C)C)c(Nc4ccc(I)cc4F)c(F)c3F)c2F)CC1` [Compound E-4], the 50% inhibitory concentration (IC50) at MEK1 worked out at 131 nM; in the data set on Calu-6, 26 nM; at BRAF, 11 nM; in the data set with A549, 6 nM; with NCI-H2122, 5 nM. In data set [1], the microsomal CLint at 0.99 µM was determined as 168 µL/min/mg.
Turning to `CONC(=O)c1cc(Cc2cccc(NS(=O)(=O)C3(C)CC3)c2F)c(F)c(F)c1Nc1ccc(I)cc1F` [Compound E-5, 3,4-Difluoro-2-(2-fluoro-4-iodoanilino)-5-[[2-fluoro-3-[(1-methylcyclopropyl)sulfonylamino]phenyl]methyl]-N-methoxybenzamide], the IC50 at MEK1 was 19 nM; with Calu-6, 17 nM; at BRAF, 8 nM; in the data set on A549, 5 nM; in the data set with NCI-H2122, 3 nM. Moreover, the microsomal CLint at 0.99 µM in data set [1] was 78 µL/min/mg.
As to `CC(C)(C)ONC(=O)c1cc(Cc2cccc(NS(=O)(=O)C3(C)CC3)c2F)c(F)c(F)c1Nc1ccc(I)cc1F` [Compound E-6, 3,4-Difluoro-2-(2-fluoro-4-iodoanilino)-5-[[2-fluoro-3-[(1-methylcyclopropyl)sulfonylamino]phenyl]methyl]-N-[(2-methylpropan-2-yl)oxy]be nzamide], the IC50 on MEK1 came out at 34 nM; in the data set with Calu-6, 28 nM; at BRAF, 17 nM; with A549 it was 8 nM; in the data set on NCI-H2122, 6 nM. The same compound displayed an intrinsic metabolic clearance (microsomal CLint) at 0.99 µM in data set [1] of 105 µL/min/mg.
With `CNS(=O)(=O)Nc1cccc(Cc2cc(C(N)=O)c(Nc3ccc(I)cc3F)c(F)c2F)c1F` [Compound E-7, 3,4-difluoro-2-(2-fluoro-4-iodoanilino)-5-[[2-fluoro-3-(methylsulfamoylamino)phenyl]methyl]benzamide], the 50% inhibitory concentration (IC50) at MEK1 is 334 nM; in the data set with Calu-6 it was 8 nM; at BRAF, 6 nM; with A549, 1 nM; in the data set on NCI-H2122, 0.4 nM. The compound further had a microsomal CLint at 0.99 µM in data set [1] of 5 µL/min/mg.
Consider `CCS(=O)(=O)Nc1cccc(Cc2cc(C(=O)NOC)c(Nc3ccc(I)cc3Cl)c(F)c2F)c1F` [Compound E-9, 2-(2-chloro-4-iodoanilino)-5-[[3-(ethylsulfonylamino)-2-fluorophenyl]methyl]-3,4-difluoro-N-methoxybenzamide], for which the IC50 at MEK1 worked out at 95 nM; with Calu-6 it was 57 nM; on BRAF, 11 nM; in the data set on A549, 7 nM; with NCI-H2122 it was 6 nM. The microsomal CLint at 0.99 µM in data set [1] stood at 13 µL/min/mg.
`CCS(=O)(=O)Nc1cccc(Cc2cc(C(=O)NOC(C)(C)C)c(Nc3ccc(I)cc3Cl)c(F)c2F)c1F` [Compound E-10, 2-(2-Chloro-4-iodoanilino)-5-[[3-(ethylsulfonylamino)-2-fluorophenyl]methyl]-3.4-difluoro-N-[(2-methylpropan-2-yl)oxy]benzamide]: the 50% inhibitory concentration (IC50) is 84 nM on MEK1; 27 nM in the data set on Calu-6; 23 nM on BRAF; 4 nM in the data set with A549; 3 nM in the data set with NCI-H2122. For the same compound, in data set [1], the microsomal CLint at 0.99 µM worked out at 51 µL/min/mg.
For the compound `CCS(=O)(=O)Nc1cccc(Cc2cc(C(N)=O)c(Nc3ccc(I)cc3Cl)c(F)c2F)c1F` [Compound E-11, 2-(2-Chloro-4-iodoanilino)-5-[[3-(ethylsulfonylamino)-2-fluorophenyl]methyl]-3,4-difluorobenzamide], the IC50 is 454 nM on MEK1; 73 nM in the data set with Calu-6; 5 nM at BRAF; 6 nM in the data set with A549; 6 nM with NCI-H2122. The compound further came in with a microsomal CLint at 0.99 µM in data set [1] of 11 µL/min/mg.
With `CC(C)(C)ONC(=O)c1cc(Cc2cccc(NS(=O)(=O)NC3CC3)c2F)c(F)c(F)c1Nc1ccc(I)cc1Cl` [Compound E-12, 2-(2-Chloro-4-iodoanilino)-5-[[3-(cyclopropylsulfamoylamino)-2-fluor ophenyl]methyl]-3,4-difluoro-N-[(2-methylpropan-2-yl)oxy]benzamide], the IC50 worked out at 260 nM on MEK1; 8 nM with Calu-6; 17 nM on BRAF; 3 nM in the data set with A549; 2 nM in the data set with NCI-H2122. Besides, in data set [1], the microsomal CLint at 0.99 µM was found to be 160 µL/min/mg.
Turning to `NC(=O)c1cc(Cc2cccc(NS(=O)(=O)CC3CC3)c2F)c(F)c(F)c1Nc1ccc(I)cc1F` [Compound E-14, 5-[[3-(Cyclopropylmethylsulfonylamino)-2-fluorophenyl]methyl]-3,4-di fluoro-2-(2-fluoro-4-iodoanilino)benzamide], the IC50 at MEK1 turned out to be 343 nM; in the data set with Calu-6, 71 nM; on BRAF, 17 nM; with A549 it was 13 nM; with NCI-H2122 it was 7 nM. Besides, the intrinsic metabolic clearance (microsomal CLint) at 0.99 µM in data set [1] came to 22 µL/min/mg.
Take `CC1(S(=O)(=O)Nc2cccc(Cc3cc(C(N)=O)c(Nc4ccc(I)cc4F)c(F)c3F)c2F)CC1` [Compound E-16, 3,4-Difluoro-2-(2-fluoro-4-iodoanilino)-5-[[2-fluoro-3-[(1-methylcyclopropyl)sulfonylamino]phenyl]methyl]benzamide]: the half-maximal inhibitory concentration (IC50) stood at 352 nM at MEK1; 87 nM in the data set on Calu-6; 12 nM on BRAF; 33 nM in the data set with A549; 7 nM in the data set with NCI-H2122. In data set [1], the intrinsic clearance (microsomal CLint) at 0.99 µM was < 1 µL/min/mg.
